Literature values as cited in patent US9655910B2, “Compositions and methods for treating addiction” (BODYBIO INC., priority 2014, dated 2017).

Tests used:
[1] = test system: mice
[2] = molecular target: CB1 cannabinoid receptor (Rattus norvegicus, UniProt P20272)
[3] = molecular target: CB2 receptor (Homo sapiens, UniProt P34972); conditions: compared with CB1
CB2 receptor, sequence (P34972 whole entry): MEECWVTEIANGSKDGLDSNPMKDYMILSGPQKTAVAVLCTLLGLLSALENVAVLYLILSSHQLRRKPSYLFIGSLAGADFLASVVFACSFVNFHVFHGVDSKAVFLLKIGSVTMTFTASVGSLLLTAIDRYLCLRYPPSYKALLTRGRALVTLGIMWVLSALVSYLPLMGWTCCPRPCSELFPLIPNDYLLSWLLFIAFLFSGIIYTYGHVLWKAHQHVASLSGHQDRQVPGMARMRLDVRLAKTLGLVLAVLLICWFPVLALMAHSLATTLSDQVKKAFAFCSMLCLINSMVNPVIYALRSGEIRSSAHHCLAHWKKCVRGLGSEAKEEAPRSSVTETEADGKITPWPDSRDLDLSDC

CB1 cannabinoid receptor, sequence (P20272 whole entry): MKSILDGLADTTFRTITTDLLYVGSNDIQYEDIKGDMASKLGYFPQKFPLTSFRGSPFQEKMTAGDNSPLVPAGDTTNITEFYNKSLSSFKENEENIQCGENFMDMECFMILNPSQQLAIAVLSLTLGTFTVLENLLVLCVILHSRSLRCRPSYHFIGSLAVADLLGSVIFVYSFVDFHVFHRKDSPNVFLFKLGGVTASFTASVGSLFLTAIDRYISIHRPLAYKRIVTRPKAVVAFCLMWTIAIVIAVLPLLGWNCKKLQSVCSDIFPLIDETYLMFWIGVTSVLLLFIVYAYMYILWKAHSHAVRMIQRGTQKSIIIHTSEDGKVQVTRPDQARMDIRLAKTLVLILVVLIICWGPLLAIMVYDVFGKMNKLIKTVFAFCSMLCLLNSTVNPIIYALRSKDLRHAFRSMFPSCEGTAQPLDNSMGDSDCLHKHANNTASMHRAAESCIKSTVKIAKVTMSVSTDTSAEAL

CCCCCC=CCC=CCC=CCC=CCCCCOC(CO)CO [Noladin ether, 2-arachidonyl glyceryl ether]
effects caused in mice [1]: sedation, hypothermia, intestinal immobility, and mild antinociception
Ki [2]: 21.2 nM
binding to the CB2 receptor [3]: only weakly
